Columns and labels:
Rod bacteria = Rod bacteria cell count and infection rate in fermented mash, sugar cane ethanol production mill trial; assay type: cell-based
Description: (§1) Bacterial and yeast cell counts, yeast cell viability and yeast flocculation were determined as described in A. J. Oliveira et al., Curso de treinamento em microbiologia, Piracicaba: FERMENTEC and ESALQ, 1996 and in A. J. Oliveira et al., Métodos para o controle microbiológico na produção de açúcar e álcool, Piracicaba: FERMENTEC, FEALQ and ESALQ, 1996. Bacterial infection rates were calculated as the ratio of the rod bacteria cell count and the yeast cell count.
(§2) Examples 9 to 11 were carried out in a sugar cane ethanol production mill operating 6 fermenters in fed-batch. The fermented mash is sent to a centrifuge which separates yeast cream with an average yeast content of 63% by weight. The yeast cream is diluted with water to an average yeast content of 27% by weight and transferred to a stirred yeast cream recovery tank. Diluted yeast cream is passed continuously from this tank to a stirred yeast treatment tank at a rate of from 42 to 127 m^3/h. Sulfuric acid is added to the yeast treatment tank to maintain a pH in the range from 1.8 to 2.8. The average residence time in both the yeast cream recovery tank and the yeast treatment tank is in the range of from 1.3 to 4.0 h. Fermentation is carried out by charging the acidified yeast concentrate to a fermenter over a 1 to 2 h period, followed by feeding sugar cane mash with a sugar content of 22° Brix and a pH of 5.8 to the fermenter over a 6 h period. Fermentation is continued for a further 2 h without feed and the fermented mash is sent to a centrifuge. Bacterial contamination was monitored by microbiological analysis of samples of fermented mash taken before feeding the mash to a centrifuge. Samples were analyzed for bacterial and yeast cell counts and for yeast cell viability and yeast flocculation.
(§3) In example 9, equilibrium peroxyacetic acid PERACLEAN® 15 of Evonik was dosed to the yeast treatment tank for 28 h in an amount of 60 ppm during days 3 and 4 of the experiment. pH in the yeast treatment tank was maintained in the range of from 1.84 to 2.02.
(§4) In example 10, equilibrium peroxyacetic acid PERACLEAN® 15 of Evonik was dosed to the yeast treatment tank for 43 h during days 6 and 7 of the experiment in an amount that was lowered stepwise from 49 ppm to 20 ppm. pH in the yeast treatment tank was maintained in the range of from 1.97 to 2.60.
(§5) In example 11, equilibrium peroxyacetic acid PERACLEAN® 15 of Evonik was dosed to the yeast cream recovery tank on days 2 and 3 of the experiment for 13 h in an amount of 50 ppm, followed by dosing for 28 h in an amount of 30 ppm. During this period the pH in the yeast cream recovery tank was in the range of from 3.0 to 3.3. Then dosing of peroxyacetic acid to the yeast cream recovery tank was stopped and peroxyacetic acid was dosed to the yeast treatment tank for 18 h in an amount of 30 ppm. During this period the pH in the yeast treatment tank was about 2.0.

Yeast = Yeast viability and yeast flocculation in fermented mash, sugar cane ethanol production mill trial; assay type: cell-based
Description: as §1, §2, §3, §4, §5

[1] = Example 9, fermenter 2, day 3, 60 ppm to yeast treatment tank during days 3 and 4, pH 1.84 to 2.02
[2] = Example 9, fermenter 2, day 4, 60 ppm to yeast treatment tank during days 3 and 4, pH 1.84 to 2.02
[3] = Example 9, fermenter 2, day 5, after addition (60 ppm, days 3 and 4) was stopped
[4] = Example 9, fermenter 4, day 3, 60 ppm to yeast treatment tank during days 3 and 4, pH 1.84 to 2.02
[5] = Example 9, fermenter 4, day 4, 60 ppm to yeast treatment tank during days 3 and 4, pH 1.84 to 2.02
[6] = Example 9, fermenter 4, day 6, after addition (60 ppm, days 3 and 4) was stopped
[7] = Example 10, fermenter 2, day 6, 49 ppm lowered stepwise to 20 ppm to yeast treatment tank during days 6 and 7, pH 1.97 to 2.60
[8] = Example 10, fermenter 2, day 7, 49 ppm lowered stepwise to 20 ppm to yeast treatment tank during days 6 and 7, pH 1.97 to 2.60
[9] = Example 10, fermenter 2, day 8, after dosing during days 6 and 7
[10] = Example 10, fermenter 2, day 9, after dosing during days 6 and 7
[11] = Example 10, fermenter 3, day 6, 49 ppm lowered stepwise to 20 ppm to yeast treatment tank during days 6 and 7, pH 1.97 to 2.60
[12] = Example 10, fermenter 3, day 7, 49 ppm lowered stepwise to 20 ppm to yeast treatment tank during days 6 and 7, pH 1.97 to 2.60
[13] = Example 10, fermenter 3, day 8, after dosing during days 6 and 7
[14] = Example 10, fermenter 3, day 9, after dosing during days 6 and 7
[15] = Example 11, fermenter 3, day 2, 50 ppm then 30 ppm to yeast cream recovery tank on days 2 and 3, pH 3.0 to 3.3
[16] = Example 11, fermenter 3, day 4, after recovery tank dosing, 30 ppm to yeast treatment tank for 18 h, pH about 2.0
[17] = Example 11, fermenter 3, day 6, after the dosing periods
[18] = Example 11, fermenter 6, day 2, 50 ppm then 30 ppm to yeast cream recovery tank on days 2 and 3, pH 3.0 to 3.3
[19] = Example 11, fermenter 6, day 3, 50 ppm then 30 ppm to yeast cream recovery tank on days 2 and 3, pH 3.0 to 3.3
[20] = Example 11, fermenter 6, day 5, after the dosing periods

For `CC(=O)OO` [peroxyacetic acid], the “Infection rate in %” value (Rod bacteria; [1]) was 11%, the Rod bacteria cells/ml (Rod bacteria; [1]) was 28*10^6 cells/ml and the “Infection rate in %” value (Rod bacteria; [2]) was 10%. The Rod bacteria cells/ml (Rod bacteria; [2]) was 39*10^6 cells/ml, the “Infection rate in %” value (Rod bacteria; [3]) was 18% and the Rod bacteria cells/ml (Rod bacteria; [3]) was 51*10^6 cells/ml. For the same molecule, the “Infection rate in %” value (Rod bacteria; [4]) was 11%, the Rod bacteria cells/ml (Rod bacteria; [4]) was 53*10^6 cells/ml and the “Infection rate in %” value (Rod bacteria; [5]) was 3%. The Rod bacteria cells/ml (Rod bacteria; [5]) was 20*10^6 cells/ml, the “Infection rate in %” value (Rod bacteria; [6]) was 22% and the Rod bacteria cells/ml (Rod bacteria; [6]) was 57*10^6 cells/ml. For the same molecule, the “bacterial contamination and yeast flocculation” value (Rod bacteria; Example 9, upon addition of 60 ppm to yeast treatment tank, return when addition is stopped) was “reduced”, the “control of bacterial contamination and yeast flocculation” value (Rod bacteria; Example 10, continuous addition of 20 ppm to the acidified yeast concentrate) was “sufficient to control bacterial contamination and avoid yeast flocculation” and the “Infection rate in %” value (Rod bacteria; [7]) was 2.8%. For the same molecule, the Rod bacteria cells/ml (Rod bacteria; [7]) was 9.6*10^6 cells/ml, the “Infection rate in %” value (Rod bacteria; [8]) was 0.5% and the Rod bacteria cells/ml (Rod bacteria; [8]) was 1.4*10^6 cells/ml. The “Infection rate in %” value (Rod bacteria; [9]) was 8.1%, the Rod bacteria cells/ml (Rod bacteria; [9]) was 24*10^6 cells/ml and the “Infection rate in %” value (Rod bacteria; [10]) was 11%. For the same molecule, the Rod bacteria cells/ml (Rod bacteria; [10]) was 29*10^6 cells/ml, the “Infection rate in %” value (Rod bacteria; [11]) was 1.5% and the Rod bacteria cells/ml (Rod bacteria; [11]) was 3.0*10^6 cells/ml. The “Infection rate in %” value (Rod bacteria; [12]) was 0.2%, the Rod bacteria cells/ml (Rod bacteria; [12]) was 0.7*10^6 cells/ml and the “Infection rate in %” value (Rod bacteria; [13]) was 4.4%. The Rod bacteria cells/ml (Rod bacteria; [13]) was 13*10^6 cells/ml, the “Infection rate in %” value (Rod bacteria; [14]) was 7.5% and the Rod bacteria cells/ml (Rod bacteria; [14]) was 22*10^6 cells/ml. For the same molecule, the “effectiveness of addition depending on pH of yeast concentrate” value (Rod bacteria; Example 11, dosing at pH 3.0 to 3.3 versus about 2.0) was “effective only for an acidified yeast concentrate at a pH of less than 3.0”, the “Infection rate in %” value (Rod bacteria; [15]) was 11% and the Rod bacteria cells/ml (Rod bacteria; [15]) was 32*10^6 cells/ml. For the same molecule, the “Infection rate in %” value (Rod bacteria; [16]) was 2%, the Rod bacteria cells/ml (Rod bacteria; [16]) was 8.4*10^6 cells/ml and the “Infection rate in %” value (Rod bacteria; [17]) was 18%. For the same molecule, the Rod bacteria cells/ml (Rod bacteria; [17]) was 24*10^6 cells/ml, the “Infection rate in %” value (Rod bacteria; [18]) was 5% and the Rod bacteria cells/ml (Rod bacteria; [18]) was 23*10^6 cells/ml. The “Infection rate in %” value (Rod bacteria; [19]) was 5%, the Rod bacteria cells/ml (Rod bacteria; [19]) was 14*10^6 cells/ml and the “Infection rate in %” value (Rod bacteria; [20]) was 10%. The Rod bacteria cells/ml (Rod bacteria; [20]) was 25*10^6 cells/ml, the “Yeast flocculation in %” value (Yeast; [1]) was 53% and the “Yeast viability in %” value (Yeast; [1]) was 79%. For the same molecule, the “Yeast flocculation in %” value (Yeast; [2]) was 5%, the “Yeast flocculation in %” value (Yeast; [3]) was 58% and the “Yeast viability in %” value (Yeast; [3]) was 82%. For the same molecule, the “Yeast flocculation in %” value (Yeast; [4]) was 63%, the “Yeast viability in %” value (Yeast; [4]) was 85% and the “Yeast flocculation in %” value (Yeast; [5]) was 0%.
